From patent US8188144B2, “In vitro preservation of living animal cells and compounds suitable for use in the preservation of living animal cells” (Antoxis Limited, priority 2007, dated 2012)

Tested on: mouse embryonic stem cells
Test: MTT cell viability assay of tert-butyl hydroperoxide oxidative stress-induced cytotoxicity in mouse embryonic stem cells
Assay type: cell-based
Conditions: for viability at 0.1 µM / viability at 0.5 µM / viability at 1 µM: Mus musculus, Embryonic stem cell, read-out: Ave. Cell Viability (%)
Procedure: Oxidative stress and related free radical damage can be induced in cells, including stem cells, by exposing the cells to tert-butyl hydroperoxide in the incubation medium. Decomposition of the peroxide over a period of time leads to a steady generation of reactive oxygen species. This in turn triggers a cascade of free radical-mediated events that eventually leads to irreversible damage and ultimately cell death as the natural antioxidant defences are overwhelmed.
The extent of cytotoxicity induced by peroxide exposure can be quantified using a number of well-documented assays, including the MTT protocol. This is a colorometric assay that measures the reduction of MTT to formazan, a process that can only occur when cells are viable. Thus, by comparing the amount of formazan produced in control cells, against cells treated with a cytotoxic agent, such as tert-butyl hydroperoxide, the reduction in cell viability induced by the agent can be measured.
The assay can be further extended to determine the effectiveness of compounds to provide protection against cytotoxic agents. In the case of the novel antioxidants, the subject of this patent, this can be achieved by pre-incubation of the cells with the antioxidant agent prior to induction of oxidative stress by tert-butyl hydroperoxide. Thus a comparison of the amount of formazan produced by control cells against cells with the cytotoxic peroxide present, plus or minus pre-incubation with the novel antioxidant, can determine the extent by which the compound can retain cell viability.
A 96-well plate was seeded with approximately 20,000 mouse embryonic stem cells per well and left to grow at 37° C. (5% CO2) overnight. Antioxidants, denoted as Exp.1, Exp.2 and Exp.3, were dissolved in DMSO and added to the wells in triplicate 30 min before induction of oxidative stress with tert-butyl hydroperoxide. The resultant concentrations of the tested antioxidants in the wells were 0.1, 0.5 and 1 μM. Controls were also initiated using cell medium (DMEM^+)/DMSO. After the 30 min pre-incubation period, tert-butyl peroxide was added to the wells to provide a final concentration of 400 μM. The plated cells were returned to the incubator (37° C.) for 90 min. After this period, 20 μL of the MTT reagent solution was added to all of the wells. The plate was then further incubated for a further 3 hours. The supernatant was removed from the wells and 200 μl DMSO added to all wells to solubilise reduced MTT (formazan). The plate was protected from light and shaken for 10 min. The supernatant was removed from the wells and aliquoted into a new 96-well plate for the colorometric measurements. Absorbance was determined at 540 nm.
The average corrected absorbance. (0.737) for the DMEM^+ control (which contained no antioxidant compounds or tert-butyl hydroperoxide) represented the 100% viability benchmark. Comparison of the corrected absorbances in the various well treatment regimes relative to that of the DMEM^+ control enabled the resultant effects on cell viability to be calculated. tBHP=tert-butyl hydroperoxide.

Molecule CCCCCCCCCCc1ccc2c(=O)c(O)c(-c3cc(O)c(O)c(O)c3)oc2c1 [Exp.1] has a viability at 0.1 µM of 56.9%, a viability at 0.5 µM of 86.5% and a viability at 1 µM of 84.8%. The “Ave. Cell Viability (%)” value (mouse, 120 min, 1 μM) was 107.4%.
For CCCCCCCCCCCCc1cc(=O)c(O)c(-c2cc(O)c(O)c(O)c2)o1 [Exp.2], the viability at 0.1 µM was 60.5%, the viability at 0.5 µM was 94.8% and the viability at 1 µM was 96.9%. The “Ave. Cell Viability (%)” value (mouse, 120 min, 1 μM) was 104.1%.
CCCCCCCCc1cc(=O)c(O)c(-c2cc(O)c(O)c(O)c2)o1 [Exp.3] showed a viability at 0.1 µM of 34.4%, a viability at 0.5 µM of 55.5% and a viability at 1 µM of 70.4%.
For CC(C)(C)OO [tBHP, tert-butyl hydroperoxide, reference compound], the “Ave. Cell Viability (%)” value (400 μM tBHP alone, no antioxidant, 90 min, relative to DMEM+ control = 100%) was 37.0% and the “Ave. Cell Viability (%)” value (400 μM tBHP alone, no antioxidant, 90 min, relative to DMEM+ control = 100%, listed as tert-butyl hydroperoxide) was 37%.
